“Also recorded” adds a separate entry of the source.
Columns and labels:
[1] = tested on: LNCaP (p53+/+) androgen-responsive prostate cancer cells; assay: MTT cell viability assay; type: cell-based, human; conditions: 24-h exposure
From the text: (§1) Cell Culture. LNCaP androgen-responsive (p53^+/+) and PC-3 androgen-nonresponsive (p53^−/−) human prostate cancer cells were purchased from the American Type Tissue Collection (Manassas, Va.) and cultured in RPMI 1640 medium (Gibco, Grand Island, N.Y.) supplemented with 10% fetal bovine serum (FBS; Gibco).—Normal human prostate epithelial cells (PrEC) were obtained from Cambrex Bioscience-Walkersville (Walkersville, Md.), and maintained in the vendor's recommended defined prostate epithelial growth medium. All cell types were cultured at 37° C. in a humidified incubator containing 5% CO2.
(§2) Cell viability analysis. The effect of test agents on cell viability was assessed by using the MTT [3-(4,5-dimethylthiazol-2-yl)-2,5-diphenyl-2H-tetrazolium bromide] assay in six to twelve replicates. Cancer cells and PrECs were grown in 5% FBS-supplemented RPMI 1640 medium or 5% FBS-supplemented prostate epithelial growth medium, respectively, in 96-well, flat-bottomed plates for 24 h, and then exposed to various concentrations of test agents in the same medium for the indicated time intervals. […] Absorbance at 570 nm was determined on a plate reader.
(§3) These agents (A1-A24) were evaluated for their ability to reduce cell viability of PC-3 (p53^−/−) androgen-nonresponsive and LNCaP (p53^+/+) androgen-responsive prostate cancer cells after 24-h exposure by MTT assay.

[2] = tested on: PC-3 (p53−/−) androgen-nonresponsive prostate cancer cells; assay: MTT cell viability assay; type: cell-based, human; conditions: PC-3 cells, 24-h exposure
From the text: as §1, §2, §3

[3] = tested on: LNCaP cells; assay: Cell proliferation by direct cell counting (Coulter counter); type: cell-based, human
Procedure: (§4) Cell Proliferation. PC-3 and LNCaP cells were seeded into six-well plates at approximately 200,000 cells/well in 5% FBS-containing RPMI 1640 medium. Following a 24 h attachment period, cells were treated in triplicate with the indicated concentrations of test agent or DMSO vehicle in 5% FBS-containing RPMI-1640 medium. At different time intervals, cells were harvested by trypsinization, and numerated using a Coulter counter (Model Z1 D/T, Beckman Coulter, Fullerton, Calif.).
(§5) In line with the cell viability data, a concentration of at least 300 μM was required for indole-3-carbinol to attain the same level of efficacy.

[4] = tested on: PC-3 cells; assay: as above; type: cell-based, human
Procedure: as §4, §5

[5] = NMR analysis of acid stability; type: physicochemical; conditions: CD3OD plus deuterium-labeled HCl, room temperature; indole-3-carbinol t=5 min, OSU-A9 up to 8 h
Procedure: Nuclear magnetic resonance (NMR) analysis of acid stability. […] To each solution was added 100 μl of deuterium-labeled HCl, and NMR spectra were recorded in a 300 MHz NMR spectrometer at room temperature at different time intervals.
Individual compounds (20 mg) were dissolved in 1 ml of deuterium-labeled methanol (CD3OD).

[6] = tested on: PC-3 cells; assay: Apoptosis analysis (morphology, caspase-3 activation and PARP cleavage by Western blot); type: cell-based, human; conditions: for caspase-3 activation and PARP cleavage: 48 hours, Western blot
Procedure: Apoptosis analysis. Drug-induced apoptotic cell death was assessed by Western blot analysis of caspase-3 activation and poly-(ADP-ribose)polymerase (PARP) cleavage. […], washed with ice-cold PBS, and resuspended in lysis buffer containing 20 mM Tris-HCl, pH 8, 137 mM NaCl, 1 mM CaCl2, 10% glycerol, 1% Nonidet P-40, 0.5% deoxycholate, 0.1% SDS, 100 μM 4-(2-aminoethyl)benzenesulfonyl fluoride, leupeptin at 10 μg/mL, and aprotinin at 10 μg/mL. Soluble cell lysates were collected after centrifugation at 10,000 g for 5 min. Equivalent amounts of proteins (60-100 μg) from each lysate were resolved in 8% SDS-polyacrylamide gels. Proteins were transferred to nitrocellulose membranes, and analyzed by immunoblotting with antibodies against caspase-3 or PARP as described below.
Drug-treated cells became shrunken, rounded, and detached from the dish.

[7] = tested on: Akt, GSK3β, Bad, ERKs, JNK, p38, Bcl-2 family members, survivin, NF-kB, cyclin D1, p27, p21 in PC-3 cells; assay: Immunoblotting of signaling targets in PC-3 cells; type: cell-based, human; conditions: 48 h; for expression of Bax, p27, and p21: dose-dependent
Procedure: Immunoblotting. Biomarkers of apoptosis and signaling components associated with cell survival and growth arrest were assessed by Western immunoblotting as follows. Treated cells were washed in PBS, resuspended in SDS sample buffer, sonicated for 5 sec, and then boiled for 5 min. After brief centrifugation, equivalent amounts of proteins from the soluble fractions of cell lysates were resolved in 10% SDS-polyacrylamide gels on a Minigel apparatus, and transferred to a nitrocellulose membrane using a semi-dry transfer cell. The transblotted membrane was washed three times with TBS containing 0.05% Tween 20 (TBST). After blocking with TBST containing 5% nonfat milk for 60 min, the membrane was incubated with an appropriate primary antibody at 1:500 dilution (with the exception of anti-b-actin antibody, 1:2,000) in TBST-5% low fat milk at 4° C. for 12 h, and was then washed three times with TBST. The membrane was probed with goat anti-rabbit or anti-mouse IgG-horseradish peroxidase conjugates (1:2,500) for 90 min at room temperature, and washed three times with TBST. The immunoblots were visualized by enhanced chemiluminescence.
Indole-3-carbinol has been reported to target an array of signaling pathways to induce apoptosis and cell cycle arrest in cancer cells. […] These targets comprised three categories of biomarkers: a) phosphorylation of signaling kinases: Akt and its downstream effector GSK3β, ERKs, JNKs, and p38; b) phosphorylation/expression of Bcl-2 family members: Bad, Bax, Bcl-2, Bcl-xL, and Mcl-1; c) expression of other apoptosis and cell-cycle regulatory proteins: survivin, NF-kB/RelA, cyclin D1, p27, and p21 (FIG. 4).

[8] = tested on: androgen receptor (AR); assay: Immunoblotting of AR expression in LNCaP cells; type: cell-based, human; conditions: highest doses examined (data not shown)
[9] = tested on: Normal human prostate epithelial cells (PrEC); assay: MTT cell viability assay; type: cell-based
From the text: as §1, §2, §3

[10] = biological target: T1, PPARγ (Homo sapiens, UniProt P37231); assay: PPRE-luciferase reporter assay for PPARγ activation in PC-3 cells; type: cell-based; conditions: even at 20 μM, 24 h
T1 construct: PC-3 cells were transfected with PPRE-X3-TK-Luc; endogenous in cells; host or cells: PC-3 cells
T1 sequence (P37231 1-505): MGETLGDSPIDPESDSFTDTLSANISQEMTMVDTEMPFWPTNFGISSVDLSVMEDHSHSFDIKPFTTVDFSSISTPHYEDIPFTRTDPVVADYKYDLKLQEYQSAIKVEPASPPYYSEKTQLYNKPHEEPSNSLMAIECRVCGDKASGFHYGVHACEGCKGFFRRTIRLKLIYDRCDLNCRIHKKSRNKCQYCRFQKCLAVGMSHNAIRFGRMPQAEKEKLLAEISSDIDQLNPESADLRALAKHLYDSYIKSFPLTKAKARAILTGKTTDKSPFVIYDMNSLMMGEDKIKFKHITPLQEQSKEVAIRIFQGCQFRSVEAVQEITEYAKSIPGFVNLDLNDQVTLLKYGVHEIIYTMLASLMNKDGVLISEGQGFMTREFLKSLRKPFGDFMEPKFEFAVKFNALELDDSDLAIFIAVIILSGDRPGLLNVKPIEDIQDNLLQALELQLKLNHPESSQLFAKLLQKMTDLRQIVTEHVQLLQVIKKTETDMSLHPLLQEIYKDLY
Procedure: Luciferase assay for PPARg activation. The PPRE-x3-TK-Luc reporter vector contains three copies of the PPAR-response element (PPRE) upstream of the thymidine kinase (tk) promoter-luciferase fusion gene and was kindly provided by Dr. Bruce Spiegelman (Harvard University, Cambridge, Mass.). PC-3 cells were cultured in a 100 mm plate in phenol red-free RPMI 1640 medium containing 10% FBS until the achieved 50-70% confluency, after which they were transfected with 6 μg of the plasmid using Fugene 6 (Roche, Indianapolis, Ind.) in RPMI 1640 medium. For each transfection, herpes simplex virus-thymidine kinase (HSV-TK) promoter-driven Renilla luciferase (phRL-TK) was used as an internal control for normalization. Following transfections, cells were treated as indicated, in RPMI 1640 medium containing 10% charcoal-stripped FBS. Cells were then collected into Passive Lysis Buffer (Promega), and luciferase activities in the cell lysates were determined by luminometry. All transfection experiments were carried out in triplicate plates and repeated separately at least three times.

[11] = Maximum tolerated dose determination; type: in vivo, athymic nude mice; conditions: intraperitoneal, daily for 14 days, doses up to 25 mg/kg (tested 5, 10, 25, 50 mg/kg/day)
[12] = Tolerability in PC-3 tumor-bearing mice (body weight, necropsy, histology, blood); type: in vivo, athymic nude mice; conditions: 10 or 25 mg/kg daily, intraperitoneal, 42 days
Procedure: (§6) In vivo studies. […] Body weights were measured weekly.

[13] = tested on: Bcl-xL; assay: Intratumoral biomarker immunoblotting of PC-3 tumor homogenates; type: in vivo, human; conditions: intraperitoneal, 42 days
Procedure: as §6

[14] = tested on: cyclin D1; assay: as above; type: in vivo, human; conditions: intraperitoneal, 42 days
Procedure: as §6

[15] = tested on: p27; assay: as above; type: in vivo, human; conditions: intraperitoneal, 42 days
Procedure: as §6

[16] = tested on: phospho-Akt; assay: as above; type: in vivo, human; conditions: intraperitoneal, 42 days
Procedure: as §6

[17] = tested on: phospho-p38; assay: as above; type: in vivo, human; conditions: intraperitoneal, 42 days
Procedure: as §6

OCc1c[nH]c2ccccc12 [indole-3-carbinol]
IC50 [1]: 267 µM
IC50 [2]: 512 µM
concentration that completely suppressed cell proliferation [3]: at least 300 μM
concentration that completely suppressed cell proliferation [4]: at least 300 μM
chemical stability in 0.1 N HCl, CH2OH proton signal by NMR [5]: immediate shift of the CH2 signal
morphological changes, light microscopy ([6]; 500 μM, 48 h): pronounced morphological changes
caspase-3 activation and PARP cleavage [6]: dose-dependent effect
phosphorylation of Akt and its substrates GSK3b and Bad [7]: dose-dependent dephosphorylation
phosphorylation of ERKs, JNK, and p38 [7]: increased phosphorylation
expression of Bax, p27, and p21 [7]: up-regulating the expression
AR expression [8]: neither agents had an appreciable effect

O=[N+]([O-])c1cc(S(=O)(=O)n2cc(CO)c3ccccc32)ccc1Cl [OSU-A9, [1-(3′-nitro-4′-chlorobenzenesulfonyl)-1H-indol-3-yl]-methanol]
lower sensitivity of PrECs than the prostate cancer cells ([9]; PrEC IC50 versus PC-3 and LNCaP IC50): 2.2-4.5 fold
IC50 ([9]; PrECs, MTT assay): 9 µM
concentration that completely suppressed cell proliferation [3]: ≥ 2.5 µM
concentration that completely suppressed cell proliferation [4]: ≥ 2.5 µM
chemical stability in 0.1 N HCl, CH2OH proton signal by NMR [5]: no appreciable change
PPARγ transactivation [10]: lacked appreciable activity
morphological changes, light microscopy ([6]; 5 μM, 24 h): pronounced morphological changes
caspase-3 activation and PARP cleavage [6]: dose-dependent effect
apoptosis-inducing potency versus indole-3-carbinol ([6]; caspase-3 activation and PARP cleavage): 100 fold
phosphorylation of Akt and its substrates GSK3b and Bad [7]: dose-dependent dephosphorylation
phosphorylation of ERKs, JNK, and p38 [7]: increased phosphorylation
expression of Bax, p27, and p21 [7]: up-regulating the expression
weight loss [11]: No apparent weight loss
body weight compared to vehicle-treated controls [12]: without significant loss of body weight
hematological and serum chemistry findings [12]: normal hematological and serum chemistry findings
overt toxicity / tolerability [12]: well-tolerated; also recorded: without overt signs of toxicity
lesions observed at necropsy ([12]; limited to peritoneal surfaces): mild to moderate amounts of fibrous adhesions
microscopic lesions in tissues examined ([12]; with the exception of the affected peritoneum): no treatment-associated lesions; also recorded: no significant lesions
reduction in intratumoral Bcl-xL ([13]; 10 mg/kg per day): 34±8%
reduction in intratumoral Bcl-xL ([13]; 25 mg/kg per day): 86±4%
reduction in intratumoral cyclin D1 ([14]; 10 mg/kg per day): 70±3%
reduction in intratumoral cyclin D1 ([14]; 25 mg/kg per day): 88±3%
increase in intratumoral p27 ([15]; 10 mg/kg per day): 1.8±0.3 fold
increase in intratumoral p27 ([15]; 25 mg/kg per day): 2.7±1.4 fold
reduction in intratumoral phospho-Akt compared to vehicle-treated controls ([16]; 10 mg/kg per day): 83±8%
reduction in intratumoral phospho-Akt compared to vehicle-treated controls ([16]; 25 mg/kg per day): 94±1%
increase in intratumoral phospho-p38 ([17]; 10 mg/kg per day): 9.0±3.5 fold
increase in intratumoral phospho-p38 ([17]; 25 mg/kg per day): 10.1±2.4 fold

From patent publication US7807705B2, “Potent indole-3-carbinol-derived antitumor agents” (The Ohio State University Research Foundation, priority 2007, dated 2010)
